Experimental data from patent publication US8314130B2, “Compounds inclunding substituted pyridines for inflammation and immune-related uses” (Synta Pharmaceuticals Corp., priority 2008, dated 2012).
Where two headings read alike, the source gives them in different places.

Tests used:
IL-2 = experiment: Inhibition of IL-2 production in PHA-activated Jurkat cells (1% FBS), ELISA; assay type: cell-based; details: Homo sapiens, read-out: IL-2 current inhibition Jurkat/PHA/1% FBS IC50
Procedure: Jurkat cells were placed in a 96 well plate (0.5 million cells per well in 1% FBS medium), and then a test compound of this invention was added at different concentrations. After 10 minutes, the cells were activated with PHA (final concentration 2.5 μg/mL) and incubated for 20 hours at 37° C. under 5% CO2. The final volume was 200 Following incubation, the cells were centrifuged, and the supernatants collected and stored at −70° C. prior to assaying for IL-2 production. A commercial ELISA kit (IL-2 Eli-pair, Diaclone Research, Besancon, France) was used to detect production of IL-2, from which dose response curves were obtained. The IC50 value was calculated as the concentration at which 50% of maximum IL-2 production after stimulation was inhibited versus a non-stimulation control.

CRACM1/STIM1 = biological target: T1, CRACM1/STIM1 (Homo sapiens, UniProt Q96D31); experiment: ICRAC current inhibition in CRACM1/STIM1-CHOK1 cells (patch clamp); assay type: cell-based; details: 500 nM, activity class
T1 construct: Full length human Stim1, CracM1, CracM2 and CracM3 cDNA
Procedure: Manual patch clamp experiments are conducted in the tight-seal whole-cell configuration at room temperature (21-25° C.). Patch pipettes are fashioned from borosilicate glass capillary tubes and have resistances between 2-4 MO after filling with standard intracellular solution. High resolution current recordings are acquired with a computer-based patch clamp amplifier system (EPC-10, HEKA, Lambrecht, Germany). All voltages are corrected for a liquid junction potential of 10 mV between external and internal solutions with glutamate as the intracellular anion. Currents are filtered at 2.9 kHz and digitized at 10 μs intervals. Capacitive currents and series resistance are determined and corrected before each voltage ramp using the automatic capacitance compensation of the EPC-10.
Automated patch clamp experiments are conducted with the QPatch 16 (Sophion Bioscience, Ballerup, Denmark) at room temperature (21-25° C.). Immediately following the establishment of giga-seal whole-cell configuration, the cells membrane potential is clamped at 0 mV. Voltage ramps of 50 ms duration spanning the voltage range of −100 to +100 mV are then stimulated at a rate of 0.33 Hz. Currents are filtered at 2.9 kHz and digitized at 200 μs intervals. Capacitive currents and series resistance are determined and corrected before each voltage ramp using the automatic capacitance compensation.
In general, a whole cell patch clamp method is used to examine the effects of a compound of the invention on a channel(s) that mediates ICRAC. In such experiments, a baseline ICRAC measurement is established within the first 70 voltage ramps, or 140 seconds, for a patched cell. Then the cells are perfused with the compound to be tested and the effect of the compound on ICRAC is measured for at least an additional 440 to 500 seconds. A compound that modulates ICRAC (e.g., inhibits) is a compound that is useful in the invention for modulating CRAC ion channel activity.
ICRAC currents are measured using 50 msec voltage ramps between −100 mV to +100 mV. The voltage ramps are stimulated every 2 seconds for the first 70 sweeps, then every 5 seconds for the remainder of the experiment. The membrane potential is held at 0 mV between the test ramps. In a typical experiment, the peak inward currents will develop within 50-100 seconds. Once the ICRAC current is stabilized, the cells are perfused with a test compound in the extracellular solution for at least an additional 500 seconds.
Off-line analysis with the Heka PatchMaster software is used to separate the ICRAC membrane current from the cells basal background currents. In a typical recording, InsP3 stimulated ICRAC currents begin to develop in 6 to 12 seconds after whole cell is established. Therefore, the first 1-4 voltage ramps represent the basal membrane currents in the absence of ICRAC and the average value is subtracted from all subsequent traces. The current value at −80 mV for each ramp trace is then measured and plotted against time. The resulting current versus time data is exported into a Microsoft Excel spreadsheet. The % ICRAC inhibition in each cell is calculated by comparing the amount of current just prior to the compound perfusion to the amount of current after the cells has been perfused with the compound for 440-500 seconds. The IC50 value and Hill coefficient for each compound is estimated by fitting all the individual data points to a single-site Hill equation.
TREx™-CHO cells were transfected with human Stim1 (recombinant DNA in pcDNA4/TO/myc-His™ A with a myc epitope tag in the N-terminal) and either CracM1, CracM2 or CracM3 (recombinant DNA in pcDNA 3.1 with a HA epitope tag in the N-terminal). Stably expressing cells were selected by growing the transfected cells in antibiotics for two to three weeks. Individual cell clones were isolated via serial dilution. […]

T1 sequence (Q96D31 whole entry): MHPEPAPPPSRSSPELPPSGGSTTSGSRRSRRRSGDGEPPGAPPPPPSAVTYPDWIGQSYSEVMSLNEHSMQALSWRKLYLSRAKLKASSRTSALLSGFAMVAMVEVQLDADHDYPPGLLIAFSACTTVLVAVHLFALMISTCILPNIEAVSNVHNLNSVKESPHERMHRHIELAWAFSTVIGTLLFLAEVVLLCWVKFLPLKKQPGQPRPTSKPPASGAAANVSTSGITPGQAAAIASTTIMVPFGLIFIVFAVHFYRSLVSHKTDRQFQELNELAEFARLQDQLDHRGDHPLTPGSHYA

SMILES | IC50 (IL-2; activity class) | inhibition at 0.5 µM (CRACM1/STIM1) | IC50 (IL-2; numeric values, unit inferred)
Cc1cc(C(=O)c2ccccc2)sc1-c1ccc(NC(=O)c2c(F)cccc2F)cc1 [A] | < 0.05 µM | 70 to 100% | 
Cc1cc(C(=O)c2cccnc2)sc1-c1ccc(NC(=O)c2c(F)cccc2F)nc1 [B] | < 0.05 µM | 50 to 70% | 
CC(C)c1sc(-c2cccnc2)nc1-c1ccc(NC(=O)c2c(F)cccc2F)nc1 [C] | < 0.05 µM | < 50% | 
Cc1sc(-c2ccccn2)nc1-c1ccc(NC(=O)c2c(F)cccc2F)nc1 [Compound 1, 2,6-Difluoro-N-(5-(5-methyl-2-(pyridin-2-yl)thiazol-4-yl)pyridin-2-yl)benzamide] | < 0.05 µM | 50 to 70% | 
Cc1sc(-c2ccccn2)nc1-c1ccc(NC(=O)c2c(F)cccc2F)cc1 [Compound 2, 2,6-Difluoro-N-(4-(5-methyl-2-(pyridin-2-yl)thiazol-4-yl)phenyl)benzamide] | < 0.05 µM | 70 to 100% | 
Cc1sc(-c2cccnc2)nc1-c1ccc(NC(=O)c2c(F)cccc2F)nc1 [Compound 3, 2,6-Difluoro-N-(5-(5-methyl-2-(pyridin-3-yl)thiazol-4-yl)pyridin-2-yl)benzamide] | < 0.05 µM | 70 to 100% | 
Cc1sc(-c2cnn(C)c2)nc1-c1ccc(NC(=O)c2c(F)cccc2F)nc1 [Compound 4, 2,6-Difluoro-N-(5-(5-methyl-2-(1-methyl-1H-pyrazol-4-yl)thiazol-4-yl)pyridin-2-yl)benzamide] | < 0.05 µM | < 50% | 
CC(C)c1sc(-c2cnn(C)c2)nc1-c1ccc(NC(=O)c2ccc(F)cc2F)nc1 [Compound 5, 2,4-Difluoro-N-(5-(5-isopropyl-2-(1-methyl-1H-pyrazol-4-yl)thiazol-4-yl)pyridin-2-yl)benzamide] | > 0.1 µM |  | 
Cc1cc(C(=O)c2cccnc2)sc1-c1ccc(NC(=O)c2c(F)cccc2F)cc1 [Compound 6, 2,6-difluoro-N-(4-(3-methyl-5-nicotinoylthiophen-2-yl)phenyl)benzamide] | < 0.05 µM | 70 to 100% | 
Cc1cc(Cc2cccnc2)sc1-c1ccc(NC(=O)c2c(F)cccc2F)cc1 [Compound 7, 2,6-difluoro-N-(4-(3-methyl-5-(pyridin-3-ylmethyl)thiophen-2-yl)phenyl)benzamide] | < 0.05 µM | 70 to 100% | 
Cc1cc(CCc2cccnc2)sc1-c1ccc(NC(=O)c2c(F)cccc2F)cc1 [Compound 8, 2,6-difluoro-N-(4-(3-methyl-5-(2-(pyridin-3-yl)ethyl)thiophen-2-yl)phenyl)benzamide] | < 0.05 µM | 70 to 100% | 
CC(C)(O)c1sc(-c2cccnc2)cc1-c1ccc(NC(=O)c2c(F)cccc2F)nc1 [Compound 9, 2,6-difluoro-N-(5-(2-(2-hydroxypropan-2-yl)-5-(pyridin-3-yl)thiophen-3-yl)pyridin-2-yl)benzamide] | > 0.1 µM |  | 
C=C(C)c1sc(-c2cccnc2)cc1-c1ccc(NC(=O)c2c(F)cccc2F)nc1 [Compound 10, 2,6-difluoro-N-(5-(2-(prop-1-en-2-yl)-5-(pyridin-3-yl)thiophen-3-yl)pyridin-2-yl)benzamide] | < 0.05 µM | 50 to 70% | 
CC(C)(O)c1sc(-c2cccnc2)cc1-c1cnc(NC(=O)c2c(F)cccc2F)cn1 [Compound 12, 2,6-difluoro-N-(5-(2-(2-hydroxypropan-2-yl)-5-(pyridin-3-yl)thiophen-3-yl)pyrazin-2-yl)benzamide] | > 0.1 µM |  | 
C=C(C)c1sc(-c2cccnc2)cc1-c1cnc(NC(=O)c2c(F)cccc2F)cn1 [Compound 13, 2,6-difluoro-N-(5-(2-(prop-1-en-2-yl)-5-(pyridin-3-yl)thiophen-3-yl)pyrazin-2-yl)benzamide] | 0.05 to 0.1 µM |  | 
O=C(Nc1ccc(-c2cc(-c3cccnc3)sc2-c2cccnc2)cc1)c1c(F)cccc1F [Compound 16, N-(4-(2,5-di(pyridin-3-yl)thiophen-3-yl)phenyl)-2,6-difluorobenzamide] | < 0.05 µM |  | 
Cc1sc(-c2cccnc2)cc1-c1cnc(NC(=O)c2c(F)cccc2F)cn1 [Compound 17, 2,6-difluoro-N-(5-(2-methyl-5-(pyridin-3-yl)thiophen-3-yl)pyrazin-2-yl)benzamide] | < 0.05 µM |  | 
CCc1sc(-c2cccnc2)nc1-c1ccc(NC(=O)c2cccc(F)c2C)nc1 [Compound A2] |  |  | 0.01 µM
CCc1sc(-c2ccc(N)nc2)nc1-c1ccc(NC(=O)c2cccc(F)c2C)nc1 [Compound A3] |  |  | 0.016 µM
Cc1sc(-c2ccc(N)nc2)nc1-c1cnc(NC(=O)c2c(F)cccc2F)cn1 [Compound A4] |  |  | 0.017 µM
Cc1cccc(F)c1C(=O)Nc1ccc(-c2nc(-c3cnn(C)c3)sc2C)cn1 [Compound A5] |  |  | 0.077 µM

SMILES | IC50 (IL-2; activity class) | inhibition at 0.5 µM (CRACM1/STIM1) | IC50 (IL-2; numeric values, unit inferred)
Cc1cc(-c2nc(-c3ccc(NC(=O)c4cccc(F)c4C)nc3)c(C)s2)no1 [Compound A6] |  |  | 0.021 µM
CCc1sc(-c2ccc(C)nc2)nc1-c1ccc(NC(=O)c2cccc(F)c2C)nc1 [Compound A7] |  |  | 0.021 µM
Cc1cccc(F)c1C(=O)Nc1ccc(-c2nc(-c3ccc(N)nc3)sc2C)cn1 [Compound A8] |  |  | 0.026 µM
CCc1sc(-c2cccnc2C)nc1-c1ccc(NC(=O)c2cccc(F)c2C)nc1 [Compound A9] |  |  | 0.028 µM
CCc1sc(-c2cnn(C)c2)nc1-c1cnc(NC(=O)c2c(F)cccc2F)cn1 [Compound A10] |  |  | 0.04 µM
Cc1sc(-c2cnccn2)nc1-c1ccc(NC(=O)c2cccc(F)c2C)nc1 [Compound A11] |  |  | 0.043 µM
CCc1sc(-c2cnn(C)c2)nc1-c1ccc(C(=O)Nc2c(C)cccc2F)cc1 [Compound A12] |  |  | 0.044 µM
CC(C)c1sc(-c2cccnc2)cc1-c1cnc(NC(=O)c2c(F)cccc2F)cn1 [Compound T] | < 0.05 µM |  | 
CC(C)c1sc(-c2cccnc2)nc1-c1ccc(NC(=O)c2ccc(F)cc2F)nc1 [D] | 0.05 to 0.1 µM |  | 
Cc1sc(CCc2cccnc2)nc1-c1ccc(NC(=O)c2c(F)cccc2F)nc1 [E] | 0.05 to 0.1 µM |  | 
Cc1sc(-c2cnco2)nc1-c1ccc(NC(=O)c2c(F)cccc2F)cc1 [G] | < 0.05 µM |  | 
Cc1sc(-c2ncc(-c3cccnc3)s2)cc1-c1ccc(NC(=O)c2c(F)cccc2F)nc1 [I] | > 0.1 µM |  | 
Cc1sc(-c2ncco2)cc1-c1ccc(NC(=O)c2c(F)cccc2F)cc1 [J] | < 0.05 µM |  | 
Cc1sc(-c2cncn2CCN(C)C)cc1-c1ccc(NC(=O)c2c(F)cccc2F)cc1 [K] | > 0.1 µM |  | 
CC(=O)c1cc(-c2ccc(NC(=O)c3c(F)cccc3F)cc2)c(C)s1 [L] | > 0.1 µM |  | 
COC(=O)c1cc(NC(=O)c2c(F)cccc2F)ccc1-c1cc(-c2cccnc2)sc1CO [M] | > 0.1 µM |  | 
CC(C)(O)c1sc(-c2cccnc2)cc1-c1ccc(NC(=O)c2c(F)cccc2F)cc1 [N] | < 0.05 µM |  | 
Cc1sc(C(=O)c2ccncc2)cc1-c1ccc(NC(=O)c2c(F)cccc2F)cc1 [P] | < 0.05 µM |  | 
Cc1sc(C#Cc2cccnc2)cc1-c1ccc(NC(=O)c2c(F)cccc2F)cc1 [Q] | < 0.05 µM |  | 
Cc1sc(CCc2cccnc2)cc1-c1ccc(NC(=O)c2c(F)cccc2F)cc1 [R] | < 0.05 µM |  | 
Cc1sc(-c2ncco2)cc1-c1cnc(NC(=O)c2c(F)cccc2F)cn1 [S] | < 0.05 µM |  | 
